Results: patent US20080200403A1, “9A-Carbamoyl and Thiocarbamoyl Azalides with Anti-Inflammatory Activity” (GLAXOSMITHKLINE, priority 2005, published 2008)
Read-outs that look alike come from different tables or passages of the source.

Tests used:
Format in all cases: cell-based
TNF-α = assay: Inhibition of TNF-α production by stimulated human peripheral blood leukocytes in vitro; details: PBL; for inhibition at 10 µM / inhibition at 50 µM: Homo sapiens, Leukocyte, read-out: Percentage of inhibition of TNF-α production
Method in brief: (§1)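 Dextran-isolated human PBL (3-5×10^6 per well) in RPMI with 10% FCS were preincubated 2 h at 37 °C with compounds at 50 μM or 10 μM final, then stimulated overnight with 2 μg/mL LPS, 1 μg/mL PMA or 120 μg/mL zymosan. Supernatant cytokines by sandwich ELISA; % inhibition versus stimulated untreated control.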

IL-1α = assay: Inhibition of IL-1 production by stimulated human peripheral blood leukocytes in vitro; details: PBL; for inhibition at 10 µM / inhibition at 50 µM: Homo sapiens, Leukocyte, read-out: Percentage of inhibition of IL-1α production
IL-6 = assay: Inhibition of IL-6 production by stimulated human peripheral blood leukocytes in vitro; details: PBL; for inhibition at 10 µM / inhibition at 50 µM: Homo sapiens, Leukocyte, read-out: Percentage of inhibition of IL-6 production
Method in brief: as §1

IL-8 = assay: Inhibition of IL-8 production by stimulated human peripheral blood leukocytes in vitro; details: PBL; for inhibition at 10 µM / inhibition at 50 µM: Homo sapiens, Leukocyte, read-out: Percentage of inhibition of IL-8 production
Method in brief: as §1

IL-2 = assay: Inhibition of IL-2 production by stimulated human PBMC in vitro; details: PHA stimulated, 3 days
Description: Heparinized peripheral blood was obtained from healthy donors, and peripheral blood mononuclear cells (PBMC) were isolated by Histopaque 1077 (Sigma, USA) density centrifugation on 400 g for 30 minutes. Collected PBMC were centrifuged in plasma on 400 g/10 min, resuspended and washed in RPMI 1640 (Institute of Immunology, Croatia) by centrifugation.
Peripheral blood mononuclear cells (PBMC), isolated as described above, were seeded in a 48-well plate at a concentration of 1×10^6 cells per well in the RPMI culture medium described above. Cells were stimulated with 10 μg/mL phytohaemagglutinin (PHA) (Sigma, USA) and incubated at 37° C., 5% CO2 in 90% humidity with tested compounds (10 and 50 μM) for 3 days. Cytokine concentrations were determined in supernatants by sandwich ELISA, using capture and detection antibodies (R&D, USA) according to the manufacturer's recommendations.
Inhibition (as percentage) was calculated using the following formula: % inhibition=(1−concentration of cytokines in sample/concentration of cytokines in positive control)×100. The positive control refers to stimulated samples, not treated with substances.

[1] = system: human peripheral blood mononuclear cells (PBMC); assay: Human T-cell proliferation in vitro (3H-thymidine incorporation); details: for inhibition at 10 µM / inhibition at 50 µM: Homo sapiens, PBMC, read-out: Percentage of inhibition of proliferation of stimulated PBMC
Method in brief: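 Donor PBMC isolated on Histopaque, 5×10^4 cells/well cultured 3 days at 37 °C with PHA (2.5 μg/mL) or PMA (10 ng/mL) plus ionomycin (500 ng/mL), and compound at 50 μM or 10 μM. 3H-thymidine pulse during final 18 h; % inhibition versus stimulated untreated cpm.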

[2] = zymosan stimulated, compound 10 μM
[3] = zymosan stimulated, compound 50 μM
[4] = PMA + ionomycin stimulated, compound 10 μM
[5] = PMA + ionomycin stimulated, compound 50 μM

CCC1OC(=O)C(C)C(OC2CC(C)(OC)C(O)C(C)O2)C(C)C(OC2OC(C)CC(N(C)C)C2O)C(C)(O)CC(C)CN(C(=S)Nc2cccc(F)c2)C(C)C(O)C1(C)O (centres unmarked) [Compound 3]
Percentage of inhibition of TNF-α production (TNF-α; LPS stimulated, compound 10 μM): 45% | Percentage of inhibition of TNF-α production (TNF-α; LPS stimulated, compound 50 μM): 74% | Percentage of inhibition of TNF-α production (TNF-α; PMA stimulated, compound 10 μM): 37% | Percentage of inhibition of TNF-α production (TNF-α; PMA stimulated, compound 50 μM): 75% | Percentage of inhibition of TNF-α production (TNF-α; [2]): 71% | Percentage of inhibition of TNF-α production (TNF-α; [3]): 94% | Percentage of inhibition of IL-1α production (IL-1α; LPS stimulated, compound 10 μM): 52% | Percentage of inhibition of IL-1α production (IL-1α; LPS stimulated, compound 50 μM): 30% | Percentage of inhibition of IL-1α production (IL-1α; PMA stimulated, compound 10 μM): 4% | Percentage of inhibition of IL-1α production (IL-1α; PMA stimulated, compound 50 μM): 0% | Percentage of inhibition of IL-1α production (IL-1α; [2]): 75% | Percentage of inhibition of IL-1α production (IL-1α; [3]): 74% | Percentage of inhibition of IL-6 production (IL-6; LPS stimulated, compound 10 μM): 13% | Percentage of inhibition of IL-6 production (IL-6; LPS stimulated, compound 50 μM): 79% | Percentage of inhibition of IL-6 production (IL-6; PMA stimulated, compound 10 μM): 24% | Percentage of inhibition of IL-6 production (IL-6; PMA stimulated, compound 50 μM): 9% | Percentage of inhibition of IL-6 production (IL-6; [2]): 59% | Percentage of inhibition of IL-6 production (IL-6; [3]): 81% | Percentage of inhibition of IL-8 production (IL-8; LPS stimulated, compound 10 μM): 38% | Percentage of inhibition of IL-8 production (IL-8; LPS stimulated, compound 50 μM): 81% | Percentage of inhibition of IL-8 production (IL-8; PMA stimulated, compound 10 μM): 61% | Percentage of inhibition of IL-8 production (IL-8; PMA stimulated, compound 50 μM): 47% | Percentage of inhibition of IL-8 production (IL-8; [2]): 40% | Percentage of inhibition of IL-8 production (IL-8; [3]): 88% | Percentage of inhibition of IL-2 production (IL-2; compound 10 μM): 86% | Percentage of inhibition of IL-2 production (IL-2; compound 50 μM): 98% | Percentage of inhibition of proliferation of stimulated PBMC ([1]; PHA stimulated, compound 10 μM): 26% | Percentage of inhibition of proliferation of stimulated PBMC ([1]; PHA stimulated, compound 50 μM): 100% | Percentage of inhibition of proliferation of stimulated PBMC [1, 4]: 23% | Percentage of inhibition of proliferation of stimulated PBMC [1, 5]: 92%

CC[C@H]1OC(=O)[C@H](C)[C@@H](O[C@H]2C[C@@](C)(OC)[C@@H](O)[C@H](C)O2)[C@H](C)[C@@H](O[C@@H]2O[C@H](C)C[C@H](N(C)C)[C@H]2O)[C@](C)(OC)C[C@@H](C)C(=O)[C@H](C)[C@@H](O)[C@]1(C)O [Clarithromycin, clarithromycin, reference compound]
inhibition at 10 µM (TNF-α; LPS stimulated, compound 10 μM): 0% | inhibition at 50 µM (TNF-α; LPS stimulated, compound 50 μM): 0% | inhibition at 10 µM (TNF-α; PMA stimulated, compound 10 μM): 0% | inhibition at 50 µM (TNF-α; PMA stimulated, compound 50 μM): 0% | inhibition at 10 µM (TNF-α; [2]): 0% | inhibition at 50 µM (TNF-α; [3]): 0% | inhibition at 10 µM (IL-1α; LPS stimulated, compound 10 μM): 0% | inhibition at 50 µM (IL-1α; LPS stimulated, compound 50 μM): 0% | inhibition at 10 µM (IL-1α; PMA stimulated, compound 10 μM): 26% | inhibition at 50 µM (IL-1α; PMA stimulated, compound 50 μM): 33% | inhibition at 10 µM (IL-1α; [2]): 36% | inhibition at 50 µM (IL-1α; [3]): 59% | inhibition at 10 µM (IL-6; LPS stimulated, compound 10 μM): 11% | inhibition at 50 µM (IL-6; LPS stimulated, compound 50 μM): 0% | inhibition at 10 µM (IL-6; PMA stimulated, compound 10 μM): 0% | inhibition at 50 µM (IL-6; PMA stimulated, compound 50 μM): 0% | inhibition at 10 µM (IL-6; [2]): 28% | inhibition at 50 µM (IL-6; [3]): 0% | inhibition at 10 µM (IL-8; LPS stimulated, compound 10 μM): 23% | inhibition at 50 µM (IL-8; LPS stimulated, compound 50 μM): 0% | inhibition at 10 µM (IL-8; PMA stimulated, compound 10 μM): 33% | inhibition at 50 µM (IL-8; PMA stimulated, compound 50 μM): 0% | inhibition at 10 µM (IL-8; [2]): 0% | inhibition at 50 µM (IL-8; [3]): 0% | inhibition at 10 µM (IL-2; Homo sapiens, 72 h, compound 10 μM, read-out: Percentage of inhibition of IL-2 production): 0% | inhibition at 50 µM (IL-2; Homo sapiens, 72 h, compound 50 μM, read-out: Percentage of inhibition of IL-2 production): 3% | inhibition at 10 µM ([1]; PHA stimulated, compound 10 μM): 0% | inhibition at 50 µM ([1]; PHA stimulated, compound 50 μM): 7% | inhibition at 10 µM [1, 4]: 9% | inhibition at 50 µM [1, 5]: 14%

CC[C@H]1OC(=O)[C@H](C)[C@@H](O[C@H]2C[C@@](C)(OC)[C@@H](O)[C@H](C)O2)[C@H](C)[C@@H](O[C@@H]2O[C@H](C)C[C@H](N(C)C)[C@H]2O)[C@](C)(O)C[C@@H](C)CN(C(=S)Nc2cccc(C(F)(F)F)c2)[C@H](C)[C@@H](O)[C@]1(C)O [Compound 4]
inhibition at 10 µM (TNF-α; LPS stimulated, compound 10 μM): 39% | inhibition at 50 µM (TNF-α; LPS stimulated, compound 50 μM): 100% | inhibition at 10 µM (TNF-α; PMA stimulated, compound 10 μM): 50% | inhibition at 50 µM (TNF-α; PMA stimulated, compound 50 μM): 100% | inhibition at 10 µM (TNF-α; [2]): 36% | inhibition at 50 µM (TNF-α; [3]): 97% | inhibition at 10 µM (IL-1α; LPS stimulated, compound 10 μM): 74% | inhibition at 50 µM (IL-1α; LPS stimulated, compound 50 μM): 82% | inhibition at 10 µM (IL-1α; PMA stimulated, compound 10 μM): 54% | inhibition at 50 µM (IL-1α; PMA stimulated, compound 50 μM): 92% | inhibition at 10 µM (IL-1α; [2]): 60% | inhibition at 50 µM (IL-1α; [3]): 13% | inhibition at 10 µM (IL-6; LPS stimulated, compound 10 μM): 38% | inhibition at 50 µM (IL-6; LPS stimulated, compound 50 μM): 100% | inhibition at 10 µM (IL-6; [2]): 0% | inhibition at 50 µM (IL-6; [3]): 100% | inhibition at 10 µM (IL-8; LPS stimulated, compound 10 μM): 41% | inhibition at 50 µM (IL-8; LPS stimulated, compound 50 μM): 100% | inhibition at 10 µM (IL-8; PMA stimulated, compound 10 μM): 52% | inhibition at 50 µM (IL-8; PMA stimulated, compound 50 μM): 100% | inhibition at 10 µM (IL-8; [2]): 0% | inhibition at 50 µM (IL-8; [3]): 52% | inhibition at 10 µM ([1]; PHA stimulated, compound 10 μM): 30% | inhibition at 50 µM ([1]; PHA stimulated, compound 50 μM): 102% | inhibition at 10 µM [1, 4]: 50% | inhibition at 50 µM [1, 5]: 100%
